In ChEMBL document CHEMBL1201862, “PubChem BioAssay data set” (2004):
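Method: 48-hour compound exposure of cells in 96-well plates, five concentrations, linear interpolation of endpoints. At the GI50, growth is halved.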 Activity calls are given as the source filed them. Rule as the data show it: active = GI50 up to about 1.1 µM and inactive = higher.

Assays:
Test in all cases: growth of human tumour cells (NCI), 48 h
[1] = tested on: PC-3
[2] = tested on: MDA-MB-231
[3] = tested on: CAKI-1
[4] = tested on: M14
[5] = tested on: HL-60
[6] = tested on: SNB-19
[7] = tested on: CCRF-CEM
[8] = tested on: TK-10
[9] = tested on: HCT-116
[10] = tested on: HT-29
[11] = tested on: ACHN
[12] = tested on: HOP-62
[13] = tested on: SN12C
[14] = tested on: 786-0
[15] = tested on: Malme-3M
[16] = tested on: SF-539
[17] = tested on: SK-MEL-5
[18] = tested on: SK-MEL-2
[19] = tested on: HOP-92

Row | SMILES | GI50 [1] | GI50 [2] | GI50 [3] | GI50 [4] | GI50 [5] | GI50 [6] | GI50 [7] | GI50 [8] | GI50 [9] | GI50 [10] | GI50 [11] | GI50 [12] | GI50 [13] | GI50 [14] | GI50 [15] | GI50 [16] | GI50 [17] | GI50 [18] | GI50 [19]
1 | CNC(=O)N1CN(c2ccccc2)C2(CCN(CCCC(=O)c3ccc(F)cc3)CC2)C1=O | 31.2 µM (inactive) | 25.2 µM (inactive) | 24.8 µM (inactive) | 16.5 µM (inactive) | 15.2 µM (inactive) | 17.3 µM (inactive) | 13.9 µM (inactive) | 18 µM (inactive) | 7.59 µM (inactive) | 5.19 µM (inactive) | 11.1 µM (inactive) | 8.22 µM (inactive) | 21.4 µM (inactive) | 26.1 µM (inactive) | 20 µM (inactive) | 13.9 µM (inactive) | 11.8 µM (inactive) |  | 
2 | C1COC2SC3=C(SC(=C4SC5=C(SCCS5)S4)S3)SC2O1 (stereo not given) | > 100 µM (inactive) | > 100 µM (inactive) | > 100 µM (inactive) | 94 µM (inactive) | 33.9 µM (inactive) | > 100 µM (inactive) | > 100 µM (inactive) | > 100 µM (inactive) | > 100 µM (inactive) | > 100 µM (inactive) | > 100 µM (inactive) | > 100 µM (inactive) | > 100 µM (inactive) | 77.8 µM (inactive) | 13 µM (inactive) | 44 µM (inactive) | 80.2 µM (inactive) | > 100 µM (inactive) | > 100 µM (inactive)
3 | COC(=O)CCC(=O)N1CC1C (stereo not given) |  |  | > 100 µM (inactive) | > 100 µM (inactive) | > 100 µM (inactive) | > 100 µM (inactive) | > 100 µM (inactive) | > 100 µM (inactive) | > 100 µM (inactive) | > 100 µM (inactive) | > 100 µM (inactive) | > 100 µM (inactive) | > 100 µM (inactive) | > 100 µM (inactive) | > 100 µM (inactive) | > 100 µM (inactive) | > 100 µM (inactive) | > 100 µM (inactive) | > 100 µM (inactive)
4 | CCOc1ccc(NC(=O)C(=O)NO)cc1 |  |  | > 100 µM (inactive) | > 100 µM (inactive) | > 100 µM (inactive) | > 100 µM (inactive) | > 100 µM (inactive) | > 100 µM (inactive) | > 100 µM (inactive) | > 100 µM (inactive) | > 100 µM (inactive) | > 100 µM (inactive) | > 100 µM (inactive) | > 100 µM (inactive) | > 100 µM (inactive) | > 100 µM (inactive) | > 100 µM (inactive) | > 100 µM (inactive) | > 100 µM (inactive)
5 | Cc1cc2c(cc1Cl)SC(NS(=O)(=O)c1ccc(Cl)cc1)=NS2(=O)=O |  | 67.6 µM (inactive) | > 100 µM (inactive) | 82.2 µM (inactive) | > 100 µM (inactive) | 65.6 µM (inactive) | 56.8 µM (inactive) | 30.3 µM (inactive) | 35.4 µM (inactive) | 47.4 µM (inactive) | > 100 µM (inactive) | 98.6 µM (inactive) | > 100 µM (inactive) | > 100 µM (inactive) |  | 18.3 µM (inactive) | 46 µM (inactive) | 54 µM (inactive) | 16 µM (inactive)
6 | [O-][n+]1cc(SCc2ccccc2)ncc1SCc1ccccc1 | > 10 µM (inactive) | > 10 µM (inactive) | > 10 µM (inactive) | > 10 µM (inactive) | > 10 µM (inactive) |  | > 10 µM (inactive) | > 10 µM (inactive) | > 10 µM (inactive) | > 10 µM (inactive) | > 10 µM (inactive) | > 10 µM (inactive) | > 10 µM (inactive) | > 10 µM (inactive) | > 10 µM (inactive) | > 10 µM (inactive) | > 10 µM (inactive) | > 10 µM (inactive) | > 10 µM (inactive)
7 | CC(C)(C)OC(=O)N(CCCCNC(=O)C(F)(F)F)CCCNC(=O)C(F)(F)F | > 100 µM (inactive) | > 100 µM (inactive) | > 100 µM (inactive) | > 100 µM (inactive) | 87.5 µM (inactive) | > 100 µM (inactive) | > 100 µM (inactive) | > 100 µM (inactive) | > 100 µM (inactive) | > 100 µM (inactive) | > 100 µM (inactive) | > 100 µM (inactive) | > 100 µM (inactive) | > 100 µM (inactive) |  | > 100 µM (inactive) | > 100 µM (inactive) | > 100 µM (inactive) | > 100 µM (inactive)
8 | NC(=O)n1ncc(Cl)c(Cl)c1=O |  |  | > 100 µM (inactive) | > 100 µM (inactive) | 95.3 µM (inactive) | > 100 µM (inactive) | > 100 µM (inactive) | > 100 µM (inactive) | > 100 µM (inactive) | > 100 µM (inactive) | > 100 µM (inactive) | > 100 µM (inactive) | > 100 µM (inactive) | > 100 µM (inactive) | > 100 µM (inactive) | > 100 µM (inactive) | > 100 µM (inactive) | > 100 µM (inactive) | > 100 µM (inactive)
9 | COc1ccc2c(c1)CC[C@@H]1[C@@H]2CC[C@]2(C)C(=O)/C(=C/c3ccc(N(C)C)cc3)C[C@@H]12 | 47.2 µM (inactive) | 55.8 µM (inactive) | 28.1 µM (inactive) | 61.2 µM (inactive) | > 100 µM (inactive) | 35.6 µM (inactive) |  | 33.2 µM (inactive) | 44 µM (inactive) |  | 48.9 µM (inactive) | 20.8 µM (inactive) |  | 29.2 µM (inactive) | 83.2 µM (inactive) | > 100 µM (inactive) | 73.1 µM (inactive) | 24.9 µM (inactive) | 24.2 µM (inactive)
10 | COC1CCN(N(C)C)O1 (stereo not given) | > 100 µM (inactive) | > 100 µM (inactive) | > 100 µM (inactive) | > 100 µM (inactive) | > 100 µM (inactive) | > 100 µM (inactive) | > 100 µM (inactive) | > 100 µM (inactive) | > 100 µM (inactive) | > 100 µM (inactive) | > 100 µM (inactive) | > 100 µM (inactive) | > 100 µM (inactive) | > 100 µM (inactive) | > 100 µM (inactive) |  | > 100 µM (inactive) | > 100 µM (inactive) | 
11 | CCN1CCC(C)OP1(=O)Cc1ccccc1 (stereo not given) | > 100 µM (inactive) | > 100 µM (inactive) | > 100 µM (inactive) | > 100 µM (inactive) |  | > 100 µM (inactive) |  | > 100 µM (inactive) | > 100 µM (inactive) | > 100 µM (inactive) | > 100 µM (inactive) | > 100 µM (inactive) |  | > 100 µM (inactive) | > 100 µM (inactive) | > 100 µM (inactive) | > 100 µM (inactive) | > 100 µM (inactive) | 
12 | O=c1[nH]c(=O)n(C2OC(COP(=O)(O)OP(=O)(O)O)C(O)C2O)cc1F (stereo not given) |  |  | 0.368 µM (active) | 1.55 µM (inactive) | 7.43 µM (inactive) | 0.743 µM (active) | 0.817 µM (active) | 15.6 µM (inactive) | 0.0643 µM (active) | 0.716 µM (active) | 0.178 µM (active) | 2.24 µM (inactive) | 0.916 µM (active) | 0.239 µM (active) | 0.726 µM (active) | 0.594 µM (active) | 4.31 µM (inactive) | 6.79 µM (inactive) | > 50 µM (inactive)
